Legend:
[1] = biological target: T1, Melanocortin receptor 4 (Homo sapiens, UniProt P32245); assay: Displacement of [125I]-NDP-alpha-MSH from human MC4R expressed in HEK2936E cell membrane measured after 16-23 hrs by 1450 microbeta trilux scintillation proximity assay; type: cell membranes
[2] = biological target: Melanocortin receptor 5 (Homo sapiens, UniProt P33032); assay: Displacement of [125I]-NDP-alpha-MSH from human MC5R expressed in HEK2936E cell membrane measured after 16-23 hrs by 1450 microbeta trilux scintillation proximity assay; type: cell membranes
Chain of Melanocortin receptor 5 (P33032 whole entry): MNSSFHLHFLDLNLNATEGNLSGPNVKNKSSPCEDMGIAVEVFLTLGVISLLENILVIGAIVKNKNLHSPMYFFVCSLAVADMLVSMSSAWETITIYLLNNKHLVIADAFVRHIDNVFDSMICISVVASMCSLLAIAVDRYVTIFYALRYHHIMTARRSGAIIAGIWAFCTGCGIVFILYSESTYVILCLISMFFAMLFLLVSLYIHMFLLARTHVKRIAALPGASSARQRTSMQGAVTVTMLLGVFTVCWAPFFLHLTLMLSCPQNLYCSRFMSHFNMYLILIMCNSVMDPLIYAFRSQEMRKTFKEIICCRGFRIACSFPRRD

[3] = biological target: T2, Melanocyte-stimulating hormone receptor (Homo sapiens, UniProt Q01726); assay: Displacement of [125I]-NDP-alpha-MSH from human MC1R expressed in HEK2936E cell membrane measured after 16-23 hrs by 1450 microbeta trilux scintillation proximity assay; type: cell membranes
T2 sequence (Q01726 whole entry): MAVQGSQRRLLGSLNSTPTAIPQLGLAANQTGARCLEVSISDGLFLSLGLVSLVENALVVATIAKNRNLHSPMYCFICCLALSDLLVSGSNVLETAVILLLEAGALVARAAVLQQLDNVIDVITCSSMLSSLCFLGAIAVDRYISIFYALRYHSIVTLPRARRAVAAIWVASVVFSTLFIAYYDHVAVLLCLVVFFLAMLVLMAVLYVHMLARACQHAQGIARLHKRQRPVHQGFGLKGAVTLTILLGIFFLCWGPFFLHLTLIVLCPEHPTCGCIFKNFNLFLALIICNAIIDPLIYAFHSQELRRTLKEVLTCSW

[4] = biological target: T2, Melanocyte-stimulating hormone receptor; assay: Agonist activity at human melanocortin receptor 1 expressed in human T-Rex-293 cells assessed as stimulation of intracellular cAMP accumulation incubated for 45 mins by LANCE cAMP assay; type: functional, cell-based
[5] = biological target: T3, Melanocortin receptor 3 (Homo sapiens, UniProt P41968); assay: Agonist activity at human melanocortin receptor 3 expressed in human T-REx-293 cells assessed as stimulation of intracellular cAMP accumulation incubated for 45 mins by LANCE cAMP assay; type: functional, cell-based
T3 sequence (P41968 whole entry): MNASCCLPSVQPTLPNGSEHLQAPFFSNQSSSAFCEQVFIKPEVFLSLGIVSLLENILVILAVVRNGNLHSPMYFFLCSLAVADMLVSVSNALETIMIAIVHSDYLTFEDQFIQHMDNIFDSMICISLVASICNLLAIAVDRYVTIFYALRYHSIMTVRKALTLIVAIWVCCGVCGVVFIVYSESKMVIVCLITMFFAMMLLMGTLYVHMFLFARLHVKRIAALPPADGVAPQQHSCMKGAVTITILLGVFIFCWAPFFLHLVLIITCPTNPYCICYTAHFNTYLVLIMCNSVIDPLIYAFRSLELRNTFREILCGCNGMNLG

[6] = biological target: T1, Melanocortin receptor 4; assay: Agonist activity at human melanocortin receptor 4 expressed in human T-REx-293 cells using high doxycycline assessed as stimulation of intracellular cAMP accumulation incubated for 45 mins by LANCE cAMP assay; type: functional
[7] = biological target: T3, Melanocortin receptor 3; assay: Displacement of [125I]-NDP-alpha-MSH from human MC3R expressed in HEK2936E cell membrane measured after 16-23 hrs by 1450 microbeta trilux scintillation proximity assay; type: cell membranes
[8] = biological target: T1, Melanocortin receptor 4; assay: Agonist activity at human melanocortin receptor 4 expressed in human T-REx-293 cells using low doxycycline assessed as stimulation of intracellular cAMP accumulation incubated for 45 mins by LANCE cAMP assay; type: functional, cell-based
[9] = species: Homo sapiens; assay: Selectivity index, […] for displacement of [125I]-NDP-alpha-MSH from human MC1R […] for displacement of [125I]-NDP-alpha-MSH from human MC5R by competitive radioligand binding assay
[10] = species: Homo sapiens; assay: Selectivity index, […] for displacement of [125I]-NDP-alpha-MSH from human MC1R […] for displacement of [125I]-NDP-alpha-MSH from human MC3R by competitive radioligand binding assay
[11] = species: Homo sapiens; assay: Selectivity index, […] for displacement of [125I]-NDP-alpha-MSH from human MC1R […] for displacement of [125I]-NDP-alpha-MSH from human MC4R by competitive radioligand binding assay

T1 sequence (P32245 whole entry): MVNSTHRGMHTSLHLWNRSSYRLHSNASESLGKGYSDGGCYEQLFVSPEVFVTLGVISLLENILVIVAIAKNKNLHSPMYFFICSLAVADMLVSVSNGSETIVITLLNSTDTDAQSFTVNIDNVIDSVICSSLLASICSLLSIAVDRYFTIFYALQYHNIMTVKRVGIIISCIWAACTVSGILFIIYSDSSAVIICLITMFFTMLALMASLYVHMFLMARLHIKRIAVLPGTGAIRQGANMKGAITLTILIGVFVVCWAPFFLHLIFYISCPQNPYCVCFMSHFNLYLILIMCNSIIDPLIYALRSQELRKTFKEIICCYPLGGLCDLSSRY

Structure (SMILES) | Ki [1] [nM] | IC50 [2] [nM] | Ki [3] [nM] | EC50 [4] [nM] | EC50 [5] [nM] | EC50 [6] [nM] | Ki [7] [nM] | EC50 [8] [nM] | Ratio [9] | Ratio [10] | Ratio [11]
CC[C@H](C)[C@@H]1NC(=O)[C@@H]2CCCN2C(=O)[C@H](Cc2c[nH]c3ccccc23)NC(=O)[C@H](CCCNC(=N)N)N(C)C(=O)[C@@H](Cc2ccccc2)NC(=O)[C@H](Cc2c[nH]cn2)NC(=O)[C@H]([C@@H](C)O)NC(=O)[C@@H]2CSSC[C@H](NC1=O)C(=O)N[C@@H](Cc1c[nH]cn1)C(=O)N[C@H](Cc1ccccc1)C(=O)N[C@@H](CCC(=O)O)C(=O)N[C@@H](Cc1c[nH]c3ccccc13)C(=O)N[C@@H](CCCNC(=N)N)C(=O)N2 | 309 | 2690 | 41.7 | 3.63 | 95.5 | 3.89 | 5010 | 105 |  |  | 
CC[C@H](C)[C@@H]1NC(=O)[C@@H]2CCCN2C(=O)[C@H](Cc2c[nH]c3ccccc23)NC(=O)[C@H](CCCNC(=N)N)N(C)C(=O)[C@@H](Cc2ccccc2)NC(=O)[C@H](Cc2c[nH]cn2)NC(=O)[C@H](CCC(=O)O)NC(=O)[C@@H]2CSSC[C@H](NC1=O)C(=O)N[C@@H](Cc1c[nH]cn1)C(=O)N[C@H](Cc1ccccc1)C(=O)N(C)[C@@H](CCCNC(=N)N)C(=O)N(C)[C@@H](Cc1c[nH]c3ccccc13)C(=O)N[C@@H](CCCNC(=N)N)C(=O)N2 | 64.6 | 380 | 0.148 | 0.0832 | 3.55 | 2.75 | 105 | 45.7 |  |  | 
CC[C@H](C)[C@@H]1NC(=O)[C@@H]2CCCN2C(=O)[C@H](Cc2c[nH]c3ccccc23)NC(=O)[C@H](CCCNC(=N)N)N(C)C(=O)[C@@H](Cc2ccccc2)NC(=O)[C@H](Cc2c[nH]cn2)NC(=O)[C@H](CC(=O)O)NC(=O)[C@@H]2CSSC[C@H](NC1=O)C(=O)N[C@@H](Cc1c[nH]cn1)C(=O)N[C@H](Cc1ccccc1)C(=O)N(C)[C@@H](CCCNC(=N)N)C(=O)N(C)[C@@H](Cc1c[nH]c3ccccc13)C(=O)N[C@@H](Cc1ccc(O)cc1)C(=O)N2 | 355 | 1230 | 0.708 | 0.0646 | 18.2 | 4.27 | 891 | 85.1 |  |  | 
C[C@@H]1NC(=O)[C@H](Cc2c[nH]c3ccccc23)NC(=O)[C@H](CCCNC(=N)N)NC(=O)[C@@H](Cc2ccccc2)NC(=O)[C@H](Cc2c[nH]cn2)NC(=O)[C@@H]2CSSC[C@H](NC1=O)C(=O)N[C@@H]([C@@H](C)O)C(=O)N[C@@H](Cc1c[nH]cn1)C(=O)N[C@H](Cc1ccccc1)C(=O)N(C)[C@@H](CCCNC(=N)N)C(=O)N[C@@H](Cc1c[nH]c3ccccc13)C(=O)N1CCC[C@H]1C(=O)N[C@@H](Cc1ccccc1)C(=O)N2 | 36.3 | 513 | 3.98 | 0.692 | 6.61 | 0.537 | 302 | 6.76 |  |  | 
CC[C@H](C)[C@@H]1NC(=O)[C@@H]2CCCN2C(=O)[C@H](Cc2c[nH]c3ccccc23)NC(=O)[C@H](CCCNC(=N)N)N(C)C(=O)[C@@H](Cc2ccccc2)NC(=O)[C@H](Cc2c[nH]cn2)NC(=O)[C@H]([C@@H](C)O)NC(=O)[C@@H]2CSSC[C@H](NC1=O)C(=O)N[C@@H](C)C(=O)N[C@H](Cc1ccccc1)C(=O)N[C@@H](CCCNC(=N)N)C(=O)N[C@@H](Cc1c[nH]c3ccccc13)C(=O)N[C@@H](CCCNC(=N)N)C(=O)N2 | 10.2 | 162 | 19.5 | 3.63 | 20 | 0.457 | 380 | 2.57 |  |  | 
CC[C@H](C)[C@@H]1NC(=O)[C@@H]2CCCN2C(=O)[C@H](Cc2c[nH]c3ccccc23)NC(=O)[C@H](CCCNC(=N)N)N(C)C(=O)[C@@H](Cc2ccccc2)NC(=O)[C@H](Cc2c[nH]cn2)NC(=O)[C@H]([C@@H](C)O)NC(=O)[C@@H]2CSSC[C@H](NC1=O)C(=O)N[C@@H](Cc1c[nH]cn1)C(=O)N[C@H](Cc1ccccc1)C(=O)N[C@@H](CCCNC(=N)N)C(=O)N[C@@H](C)C(=O)N[C@@H](CCCNC(=N)N)C(=O)N2 | 50.1 | 1780 | 1.55 | 0.427 | 16.2 | 1.2 | 891 | 28.2 |  |  | 
CC[C@H](C)[C@@H]1NC(=O)[C@@H]2CCCN2C(=O)[C@H](Cc2c[nH]c3ccccc23)NC(=O)[C@H](CCCNC(=N)N)N(C)C(=O)[C@@H](Cc2ccccc2)NC(=O)[C@H](Cc2c[nH]cn2)NC(=O)[C@H]([C@@H](C)O)NC(=O)[C@@H]2CSSC[C@H](NC1=O)C(=O)N[C@@H](Cc1c[nH]cn1)C(=O)N[C@H](Cc1ccccc1)C(=O)N[C@@H](CCCNC(=N)N)C(=O)N[C@@H](Cc1ccc3ccccc3c1)C(=O)N[C@@H](C)C(=O)N2 | 8.13 | 89.1 | 0.724 | > 0.0501 | 2.19 | 0.275 | 50.1 | 2.69 |  |  | 
CC[C@H](C)[C@@H]1NC(=O)[C@@H]2CCCN2C(=O)[C@H](Cc2c[nH]c3ccccc23)NC(=O)[C@H](CCCNC(=N)N)N(C)C(=O)[C@@H](Cc2ccccc2)NC(=O)[C@H](Cc2c[nH]cn2)NC(=O)[C@H]([C@@H](C)O)NC(=O)[C@@H]2CSSC[C@H](NC1=O)C(=O)N[C@@H](Cc1c[nH]cn1)C(=O)N[C@H](Cc1ccccc1)C(=O)N[C@@H](CCCNC(=N)N)C(=O)N[C@@H](Cc1c[nH]c3ccccc13)C(=O)N[C@@H](C)C(=O)N2 | 13.5 | 200 | 0.912 | 0.0562 | 1.45 | 0.178 | 85.1 | 2.04 |  |  | 
CC[C@H](C)[C@@H]1NC(=O)[C@@H]2CCCN2C(=O)[C@H](Cc2c[nH]c3ccccc23)NC(=O)[C@H](CCCNC(=N)N)N(C)C(=O)[C@@H](Cc2ccccc2)NC(=O)[C@H](Cc2c[nH]cn2)NC(=O)[C@H]([C@@H](C)O)NC(=O)[C@@H]2CSSC[C@H](NC1=O)C(=O)N[C@@H](Cc1c[nH]cn1)C(=O)N[C@H](Cc1ccccc1)C(=O)N[C@@H](CCCCN)C(=O)N[C@@H](Cc1c[nH]c3ccccc13)C(=O)N[C@@H](C)C(=O)N2 | 72.4 | 631 | 11.7 | 0.832 | 38.9 | 3.16 | 708 | 52.5 |  |  | 
CC[C@H](C)[C@@H]1NC(=O)[C@@H]2CCCN2C(=O)[C@H](Cc2c[nH]c3ccccc23)NC(=O)[C@H](CCC(=O)O)NC(=O)[C@@H](Cc2ccccc2)NC(=O)[C@H](Cc2c[nH]cn2)NC(=O)[C@H]([C@@H](C)O)NC(=O)[C@@H]2CSSC[C@H](NC1=O)C(=O)N[C@@H](Cc1c[nH]cn1)C(=O)N[C@H](Cc1ccccc1)C(=O)N(C)[C@@H](CCCNC(=N)N)C(=O)N(C)[C@@H](Cc1c[nH]c3ccccc13)C(=O)N[C@@H](CCCNC(=N)N)C(=O)N2 | 589 | 3090 | 1.29 | 0.141 | 72.4 | 22.9 | 1740 | 398 |  |  | 
CC[C@H](C)[C@@H]1NC(=O)[C@@H]2CCCN2C(=O)[C@H](Cc2c[nH]c3ccccc23)NC(=O)[C@H](CCCNC(=N)N)N(C)C(=O)[C@@H](Cc2ccccc2)NC(=O)[C@H](Cc2c[nH]cn2)NC(=O)[C@H]([C@@H](C)O)NC(=O)[C@@H]2CSSC[C@H](NC1=O)C(=O)N[C@@H](Cc1c[nH]cn1)C(=O)N[C@H](Cc1ccccc1)C(=O)N(C)[C@@H](CCCNC(=N)N)C(=O)N(C)[C@@H](Cc1c[nH]c3ccccc13)C(=O)N[C@@H](CCCNC(=N)N)C(=O)N2 | 30.2 | 166 | 0.0692 | < 0.0501 | 1.23 | 0.977 | 51.3 | 26.3 | 3000 | 30 | 30
CC[C@H](C)[C@@H]1NC(=O)[C@@H]2CCCN2C(=O)[C@H](Cc2c[nH]c3ccccc23)NC(=O)[C@H](CCCNC(=N)N)N(C)C(=O)[C@@H](Cc2ccccc2)NC(=O)[C@H](Cc2c[nH]cn2)NC(=O)[C@H]([C@@H](C)O)NC(=O)[C@@H](NC(C)=O)CSSC[C@@H](C(N)=O)NC1=O | 347 | 11200 | 195 | 8.71 | 39.8 | 2.57 | 3980 | 60.3 |  |  | 

Reference: ChEMBL document CHEMBL5034014, “Melanocortin 1 Receptor Agonists Based on a Bivalent, Bicyclic Peptide Framework” (J Med Chem, 2021)
